Test results taken from patent US6875761B2 (Eisai Co., Ltd., priority 1997, dated 2005).
pKi: −log10 of the molar value. Counter-ions that a name gives are not always drawn.

Experiments:
serotonin 1A receptor = target: T1, serotonin 1A receptor (Rattus norvegicus, UniProt P19327); test: Binding test on [3H] 8-hydroxy-dipropylaminotetralin, hippocampus receptor fraction; parameters: species or system SD rats; conditions: rat hippocampus receptor fraction, 0.5 nM [3H] 8-OH-DPAT, room temperature 30 min; read-out: 5HT1
T1 construct: To the receptor fraction of the hippocampus were added a test compound and 0.5 nM of [^3H]; 8-hydroxy-dipropylaminotetralin; from tissue; host or cells: rat hippocampus membrane fraction
T1 sequence (P19327 1-422): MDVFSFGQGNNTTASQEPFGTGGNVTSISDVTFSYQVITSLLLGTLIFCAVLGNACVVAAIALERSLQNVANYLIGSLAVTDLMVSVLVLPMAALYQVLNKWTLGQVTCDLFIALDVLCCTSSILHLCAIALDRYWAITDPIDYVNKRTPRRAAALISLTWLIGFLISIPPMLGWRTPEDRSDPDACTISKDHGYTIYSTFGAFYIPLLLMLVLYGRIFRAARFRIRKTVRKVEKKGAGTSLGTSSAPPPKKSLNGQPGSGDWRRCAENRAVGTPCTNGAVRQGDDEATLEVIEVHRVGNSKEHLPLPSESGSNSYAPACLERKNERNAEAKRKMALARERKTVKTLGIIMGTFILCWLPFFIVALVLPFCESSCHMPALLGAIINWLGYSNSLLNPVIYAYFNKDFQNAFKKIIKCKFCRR

serotonin 2 receptor = target: T2, serotonin 2 receptor (Rattus norvegicus, UniProt P14842); test: Binding test on [3H] ketanserin, cerebral cortex receptor fraction; parameters: species or system SD rats; conditions: 0.3 nM [3H] ketanserin, 37° C. 15 min, read-out: 5HT2
T2 construct: To the receptor fraction of the cerebral cortex were added a test compound and 0.3 nM of [^3H] ketanserin; from tissue; host or cells: rat cerebral cortex membrane fraction
T2 sequence (P14842 whole entry): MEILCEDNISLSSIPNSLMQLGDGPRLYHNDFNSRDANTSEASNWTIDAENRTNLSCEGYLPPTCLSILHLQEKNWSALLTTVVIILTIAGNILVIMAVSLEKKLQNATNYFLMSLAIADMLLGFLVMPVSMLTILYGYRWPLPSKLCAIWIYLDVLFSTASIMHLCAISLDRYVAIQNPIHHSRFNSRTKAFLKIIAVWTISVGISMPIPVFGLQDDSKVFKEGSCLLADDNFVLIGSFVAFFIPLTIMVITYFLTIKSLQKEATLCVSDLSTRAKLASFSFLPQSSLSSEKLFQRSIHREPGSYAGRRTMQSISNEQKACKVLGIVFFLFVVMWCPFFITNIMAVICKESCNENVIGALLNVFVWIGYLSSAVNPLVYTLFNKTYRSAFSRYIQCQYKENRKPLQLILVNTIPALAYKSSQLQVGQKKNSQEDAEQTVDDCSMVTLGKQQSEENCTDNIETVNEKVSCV

Row | SMILES | pKi (serotonin 1A receptor) | pKi (serotonin 2 receptor)
1 | CCN1CCN(c2nc(-c3ccc([C@@H]4C[C@H](O)CCO4)cc3)cc3ccccc23)CC1 (relative stereo) [Example 401, 1-(4-Ethylpiperazin-1-yl)-3-[4-(cis-4-Hydroxytetrahydropyran-2-yl)Phenyl]Isoquinoline Dihydrochloride] | 7.50 | 8.47
2 | CCN1CCN(c2nc(-c3ccc([C@@H]4C[C@@H](O)CCO4)cc3)cc3ccccc23)CC1 (relative stereo) [Example 402, 1-(4-Ethylpiperazin-1-yl)-3-[4-(trans-4-Hydroxytetrahydropyran-2-yl)Phenyl]Isoquinoline Dihydrochloride] | 7.63 | 8.68
3 | CCN1CCN(c2nc(-c3ccc([C@@H]4C[C@H](O)CCO4)cc3)cc3ccsc23)CC1 (relative stereo) [Example 454, 7-(4-Ethylpiperazin-1-yl)-5-[4-(cis-4-hydroxytetrahydropyran-2-yl)phenyl]thieno[2,3-c]pyridine dihydrochloride] | 7.17 | 7.58
4 | CCN1CCN(c2nc(-c3ccc([C@@H]4C[C@@H](O)CCO4)cc3)cc3ccsc23)CC1 (relative stereo) [Example 455, 7-(4-ethylpiperazin-1-yl)-5-[4-(trans-4-hydroxytetrahydropyran-2-yl)phenyl]thieno[2,3-c]pyridine dihydrochloride] | 7.30 | 7.40
5 | CCN1CCN(c2nc(C=C(COC)c3ccccc3)cc3ccccc23)CC1 (stereo in doubt) [Example 208, 3-[(E)-2-Methoxymethyl-2-Phenylethenyl]-1-(4-Ethylpiperazin-1-Yl)Isoquinoline Oxalate] | 7.04 | 8.12
6 | CCN1CCN(c2nc(-c3ccc(OCC(C)O)cc3)cc3cccnc23)CC1 (stereo in doubt) [Example 246, 8-(1-ethylpiperazin-4-yl)-6-{4-[(S)-2-hydroxypropoxy}phenyl]-1,7-naphthyridine Dihydrochloride] | 7.06 | 7.86
7 | CCN1CCN(c2nc(-c3ccc(OCC(C)O)cc3)cc3ccoc23)CC1 (stereo in doubt) [Example 304, 7-(1-ethylpiperazin-4-yl)-5-[4-[(S)-2-hydroxypropoxy]phenyl)furo[2,3-c]pyridine dihydrochloride] | 7.81 | 7.71
8 | CCN1CCN(c2nc(-c3ccc(O[C@H](C)CO)cc3)cc3sccc23)CC1 (stereo in doubt) [Example 463, 4-(4-ethylpiperazin-1-yl)-6-[4-(2-hydroxy-1-methylethoxy)phenyl]thieno[3,2-c]pyridine dihydrochloride] | 8.16 | 7.68
9 | CCN1CCN(c2nc(-c3ccnc(OCc4ccccc4)c3)cc3ccccc23)CC1 [406 2-Benzyloxy, 1-(4-ethylpiperazin-1-yl)-3-(2-benzyloxypyridin-4-yl)isoquinoline] | 7.34 | 7.06
10 | CCN1CCN(c2nc(-c3ccnc(Cl)c3)cc3ccccc23)CC1 [406 2-chloro, 1-(4-ethylpiperazin-1-yl)-3-(2-chloropyridin-4-yl)isoquinoline] | 7.91 | 7.95
11 | CN(C)CCC=C1c2ccccc2C=Cc2ccccc21 [Cyclobenzaprine, cyclobenzaprine hydrochloride, reference compound] | 7.60 | 7.54
12 | CN1CCN(c2nc(-c3ccc(OCCO)cc3)cc3ccccc23)CC1 [Example 3, 1-(1-methylpiperazin-4-yl)-3-[4-(2-hydroxyethoxy)phenyl]isoquinoline] | 7.19 | 8.42
13 | CCN1CCN(c2nc(-c3ccc(C(F)(F)F)cc3)cc3ccccc23)CC1 [Example 4, 1-(4-ethylpiperazin-1-yl)-3-(4-trifluoromethylphenyl)isoquinoline Dihydrochloride] | 7.15 | 7.13
14 | CCC(F)c1ccc(-c2cc3ccccc3c(N3CCN(CC)CC3)n2)cc1 (stereo not drawn) [Example 5, 1-(4-ethylpiperazin-1-yl)-3-[4-(1-fluoropropyl)phenyl]isoquinoline Hydrochloride] | 7.68 | 8.66
15 | CCN1CCN(c2nc(-c3cccc(OC)c3)cc3ccccc23)CC1 [Example 9, 1-(4-ethylpiperazin-1-yl)-3-(3-methoxyphenyl)isoquinone Dihydrochloride] | 7.24 | 7.61
16 | CCN1CCN(c2nc(-c3ccc(OC)cc3)cc3ccccc23)CC1 [Example 10, 1-(4-Ethylpiperazin-1-yl)-3-(4-methoxyphenyl)isoquinoline] | 7.22 | 7.96
17 | CCN1CCN(c2nc(-c3ccc(OC)c(OC)c3)cc3ccccc23)CC1 [Example 14, 3-(3,4-dimethoxyphenyl)-1-(4-ethylpiperazin-1-yl)isoquinoline Dihydrochloride] | 7.64 | 7.46

Row | SMILES | pKi (serotonin 1A receptor) | pKi (serotonin 2 receptor)
18 | CCN1CCN(c2nc(-c3cc(OC)cc(OC)c3)cc3ccccc23)CC1 [Example 15, 3-(3,5-dimethoxyphenyl)-1-(4-ethylpiperazin-1-yl)isoquinoline Dihydrochloride] | 7.26 | 7.71
19 | CCN1CCN(c2nc(-c3ccc(CO)cc3)cc3ccccc23)CC1 [Example 17, 1-(4-ethylpiperazin-1-yl)-3-(4-hydroxymethylphenyl)isoquinoline hydrochloride] | 7.95 | 7.57
20 | CCN1CCN(c2nc(-c3ccc(C(O)CCO)cc3)cc3ccccc23)CC1 (stereo not drawn) [Example 24, 3-[4-(1,3-dihydroxypropyl)phenyl]-1-(4-ethylpiperazin-1-yl)isoquinoline hydrochloride] | 7.93 | 8.13
21 | CCN1CCN(c2nc(-c3ccc(C(O)CC(C)(C)O)cc3)cc3ccccc23)CC1 (stereo not drawn) [Example 25, 3-[4-(1,3-dihydroxy-3-methylbutyl)phenyl]-1-(4-ethylpiperazin-1-yl)isoquinoline] | 7.67 | 8.47
22 | CCN1CCN(c2nc(-c3ccc(C(CC(C)O)OC)cc3)cc3ccccc23)CC1 (stereo not drawn) [Example 26, 3-[4-(3-hydroxy-1-methoxybutyl)phenyl]-1-(4-ethylpiperazin-1-yl)isoquinoline] | 8.07 | 7.26
23 | CCN1CCN(c2nc(-c3ccc(C(F)CCO)cc3)cc3ccccc23)CC1 (stereo not drawn) [Example 27, 1-(1-Ethylpiperazin-4-yl)-3-[4-(3-hydroxy-1-fluoropropyl)phenyl]isoquinoline] | 7.53 | 8.61
24 | CCN1CCN(c2nc(-c3ccc(CO)c(F)c3)cc3ccccc23)CC1 [Example 28, 1-(4-ethylpiperazin-1-yl)-3-[4-(4-hydroxymethyl-3-fluoro)phenyl]isoquinoline hydrochloride] | 7.61 | 8.04
25 | CCN1CCN(c2nc(-c3ccc(CCCO)c(Cl)c3)cc3ccccc23)CC1 [Example 30, 3-[3-chloro-4-(3-hydroxypropyl)phenyl]-1-(4-ethylpiperazin-1-yl)isoquinoline hydrochloride] | 7.97 | 8.20
26 | CCN1CCN(c2nc(-c3ccc(OC)c(CCCO)c3)cc3ccccc23)CC1 [Example 34, 3-[3-(3-hydroxypropyl)-4-methoxyphenyl]-1-(4-ethylpiperazin-1-yl)isoquinoline hydrochloride] | 7.63 | 7.76
27 | CCN1CCN(c2nc(-c3ccc(OC)c(CCCCO)c3)cc3ccccc23)CC1 [Example 35, 3-[3-(4-hydroxybutyl)-4-methoxyphenyl]-1-(4-ethylpiperazin-1-yl)isoquinoline hydrochloride] | 7.45 | 8.24
28 | CCN1CCN(c2nc(-c3cc(OCCO)cc(OCCO)c3)cc3ccccc23)CC1 [Example 38, 3-[3,5-di(2-hydroxyethoxy)phenyl]-1-(4-ethylpiperazin-1-yl)isoquinoline hydrochloride] | 7.68 | 7.12
29 | CCN1CCN(c2nc(-c3ccc(OCCO)c(Cl)c3)cc3ccccc23)CC1 [Example 39, 3-[3-chloro-4-(2-hydroxyethoxy)phenyl]-1-(4-ethylpiperazin-1-yl)isoquinoline hydrochloride] | 7.59 | 8.31
30 | CCN1CCN(c2nc(-c3ccc(OCCO)c(C)c3)cc3ccccc23)CC1 [Example 40, 3-[3-methyl-4-(2-hydroxyethoxy)phenyl]-1-(4-ethylpiperazin-1-yl)isoquinoline hydrochloride] | 7.57 | 8.51
31 | CCN1CCN(c2nc(-c3ccc(OCCO)c(C(C)C)c3)cc3ccccc23)CC1 [Example 41, 3-[3-isopropyl-4-(2-hydroxyethoxy)phenyl]-1-(4-ethylpiperazin-1-yl)isoquinoline hydrochloride] | 7.40 | 7.34
32 | CCN1CCN(c2nc(-c3ccc(OCCOC)c(OCCOC)c3)cc3ccccc23)CC1 [Example 43, 3-[3,4-Di(2-Methoxyethoxy)Phenyl]-1-(4-Ethylpiperazin-1-Yl)Isoquinoline Hydrochloride] | 7.53 | 7.18
33 | CCN1CCN(c2nc(-c3ccc(COCCO)cc3)cc3ccccc23)CC1 [Example 44, 3-[4-(2-Hydroxyethoxylmethylphenyl]-1-(4-ethylpiperazin-1-Yl)Isoquinoline Hydrochloride] | 7.26 | 8.05
